# Assay results: ChEMBL document CHEMBL3727348, “3-(aryl or heteroaryl) methyleneindolin-2-one derivatives as inhibitors of cancer stem cell pathway kinases for the treatment of cancer” (2014)
# Test system: FaDu
# Test: Cytotoxic activity against human FADU cancer stem cells incubated for 72 hrs by Cell-titer-Glo luminescence assay
# Format: functional, cell-based
# Settings: not given
row,SMILES,IC50 [µM]
1,CCN(CC)CCNC(=O)c1c(C)[nH]c(/C=C2\C(=O)Nc3ccc(-c4ncccc4C)cc32)c1C,20
2,CCN(CC)CCNC(=O)c1c(C)[nH]c(/C=C2\C(=O)Nc3ccc(-c4ccc5c(c4)CC(=O)N5)cc32)c1C,15.5
3,O=C1Nc2ccc(-c3csc(C4CCNCC4)n3)cc2/C1=C/c1cc2ccccc2[nH]1,0.76
4,CCN(CC)CCNC(=O)CCc1c(C)[nH]c(/C=C2\C(=O)Nc3ccc(-c4csc(-c5ccccc5)n4)cc32)c1C,3.53
5,Cc1[nH]c(/C=C2\C(=O)Nc3ccc(-c4csc(-c5ccccc5)n4)cc32)c(C)c1S(=O)(=O)N1CCOCC1,0.21
6,Cc1cc(C)c(/C=C2\C(=O)Nc3ccc(-c4n[nH]c5ccccc45)cc32)[nH]1,5.33
7,CCN(CC)CCNC(=O)c1c(C)[nH]c(/C=C2\C(=O)Nc3ccc(-c4ccccn4)cc32)c1C,0.18
8,CCN(CC)CCNC(=O)c1c(C)[nH]c(/C=C2\C(=O)Nc3cc(-c4ccc(C(=O)c5ccccc5)cc4)ccc32)c1C,1.46
9,CCN(CC)CCNC(=O)c1c(C)[nH]c(/C=C2\C(=O)Nc3ccc(-c4nc5ccccc5s4)cc32)c1C,5.97
10,CCN(CC)CCNC(=O)c1c(C)[nH]c(/C=C2\C(=O)Nc3ccc(-c4nccc5ccccc45)cc32)c1C,0.03

# Test system: A549
# Test: Cytotoxic activity against human A549 bulk cells incubated for 72 hrs by Cell-titer-Glo luminescence assay
# Format: functional, cell-based
# Settings: A549, 72 h
row,SMILES,IC50 [µM]
1,CCN(CC)CCNC(=O)c1c(C)[nH]c(/C=C2\C(=O)Nc3ccc(-c4ncccc4C)cc32)c1C,4.14
2,CCN(CC)CCNC(=O)c1c(C)[nH]c(/C=C2\C(=O)Nc3ccc(-c4ccc5c(c4)CC(=O)N5)cc32)c1C,19.7
3,O=C1Nc2ccc(-c3csc(C4CCNCC4)n3)cc2/C1=C/c1cc2ccccc2[nH]1,5.55
4,CCN(CC)CCNC(=O)CCc1c(C)[nH]c(/C=C2\C(=O)Nc3ccc(-c4csc(-c5ccccc5)n4)cc32)c1C,1.11
5,Cc1[nH]c(/C=C2\C(=O)Nc3ccc(-c4csc(-c5ccccc5)n4)cc32)c(C)c1S(=O)(=O)N1CCOCC1,7.28
6,Cc1cc(C)c(/C=C2\C(=O)Nc3ccc(-c4n[nH]c5ccccc45)cc32)[nH]1,6.45
7,CCN(CC)CCNC(=O)c1c(C)[nH]c(/C=C2\C(=O)Nc3ccc(-c4ccccn4)cc32)c1C,7.23
8,CCN(CC)CCNC(=O)c1c(C)[nH]c(/C=C2\C(=O)Nc3cc(-c4ccc(C(=O)c5ccccc5)cc4)ccc32)c1C,3.65
9,CCN(CC)CCNC(=O)c1c(C)[nH]c(/C=C2\C(=O)Nc3ccc(-c4nc5ccccc5s4)cc32)c1C,3.73
10,CCN(CC)CCNC(=O)c1c(C)[nH]c(/C=C2\C(=O)Nc3ccc(-c4nccc5ccccc45)cc32)c1C,3.18

# Test system: A549
# Test: Cytotoxic activity against human A549 cancer stem cells incubated for 72 hrs by Cell-titer-Glo luminescence assay
# Format: functional, cell-based
# Settings: A549, 72 h
row,SMILES,IC50 [µM]
1,CCN(CC)CCNC(=O)c1c(C)[nH]c(/C=C2\C(=O)Nc3ccc(-c4ncccc4C)cc32)c1C,13.1
2,CCN(CC)CCNC(=O)c1c(C)[nH]c(/C=C2\C(=O)Nc3ccc(-c4ccc5c(c4)CC(=O)N5)cc32)c1C,29.2
3,O=C1Nc2ccc(-c3csc(C4CCNCC4)n3)cc2/C1=C/c1cc2ccccc2[nH]1,2.04
4,CCN(CC)CCNC(=O)CCc1c(C)[nH]c(/C=C2\C(=O)Nc3ccc(-c4csc(-c5ccccc5)n4)cc32)c1C,8.74
5,Cc1[nH]c(/C=C2\C(=O)Nc3ccc(-c4csc(-c5ccccc5)n4)cc32)c(C)c1S(=O)(=O)N1CCOCC1,3.73
6,Cc1cc(C)c(/C=C2\C(=O)Nc3ccc(-c4n[nH]c5ccccc45)cc32)[nH]1,7.28
7,CCN(CC)CCNC(=O)c1c(C)[nH]c(/C=C2\C(=O)Nc3ccc(-c4ccccn4)cc32)c1C,5.45
8,CCN(CC)CCNC(=O)c1c(C)[nH]c(/C=C2\C(=O)Nc3cc(-c4ccc(C(=O)c5ccccc5)cc4)ccc32)c1C,3.16
9,CCN(CC)CCNC(=O)c1c(C)[nH]c(/C=C2\C(=O)Nc3ccc(-c4nc5ccccc5s4)cc32)c1C,4.13
10,CCN(CC)CCNC(=O)c1c(C)[nH]c(/C=C2\C(=O)Nc3ccc(-c4nccc5ccccc45)cc32)c1C,13.9

# Test system: ACHN
# Test: Cytotoxic activity against human ACHN bulk cells incubated for 72 hrs by Cell-titer-Glo luminescence assay
# Format: functional, cell-based
# Settings: not given
row,SMILES,IC50 [µM]
1,CCN(CC)CCNC(=O)c1c(C)[nH]c(/C=C2\C(=O)Nc3ccc(-c4ncccc4C)cc32)c1C,4.15
2,CCN(CC)CCNC(=O)c1c(C)[nH]c(/C=C2\C(=O)Nc3ccc(-c4ccc5c(c4)CC(=O)N5)cc32)c1C,18.9
3,O=C1Nc2ccc(-c3csc(C4CCNCC4)n3)cc2/C1=C/c1cc2ccccc2[nH]1,4.12
4,CCN(CC)CCNC(=O)CCc1c(C)[nH]c(/C=C2\C(=O)Nc3ccc(-c4csc(-c5ccccc5)n4)cc32)c1C,2.48
5,Cc1[nH]c(/C=C2\C(=O)Nc3ccc(-c4csc(-c5ccccc5)n4)cc32)c(C)c1S(=O)(=O)N1CCOCC1,10.7
6,Cc1cc(C)c(/C=C2\C(=O)Nc3ccc(-c4n[nH]c5ccccc45)cc32)[nH]1,8.73
7,CCN(CC)CCNC(=O)c1c(C)[nH]c(/C=C2\C(=O)Nc3ccc(-c4ccccn4)cc32)c1C,2.26
8,CCN(CC)CCNC(=O)c1c(C)[nH]c(/C=C2\C(=O)Nc3cc(-c4ccc(C(=O)c5ccccc5)cc4)ccc32)c1C,4.11
9,CCN(CC)CCNC(=O)c1c(C)[nH]c(/C=C2\C(=O)Nc3ccc(-c4nc5ccccc5s4)cc32)c1C,9.53
10,CCN(CC)CCNC(=O)c1c(C)[nH]c(/C=C2\C(=O)Nc3ccc(-c4nccc5ccccc45)cc32)c1C,5.05

# Test system: ACHN
# Test: Cytotoxic activity against human ACHN cancer stem cells incubated for 72 hrs by Cell-titer-Glo luminescence assay
# Format: functional, cell-based
# Settings: not given
row,SMILES,IC50 [µM]
1,CCN(CC)CCNC(=O)c1c(C)[nH]c(/C=C2\C(=O)Nc3ccc(-c4ncccc4C)cc32)c1C,1.88
2,CCN(CC)CCNC(=O)c1c(C)[nH]c(/C=C2\C(=O)Nc3ccc(-c4ccc5c(c4)CC(=O)N5)cc32)c1C,20.8
3,O=C1Nc2ccc(-c3csc(C4CCNCC4)n3)cc2/C1=C/c1cc2ccccc2[nH]1,0.1
4,CCN(CC)CCNC(=O)CCc1c(C)[nH]c(/C=C2\C(=O)Nc3ccc(-c4csc(-c5ccccc5)n4)cc32)c1C,4.23
5,Cc1[nH]c(/C=C2\C(=O)Nc3ccc(-c4csc(-c5ccccc5)n4)cc32)c(C)c1S(=O)(=O)N1CCOCC1,0.56
6,Cc1cc(C)c(/C=C2\C(=O)Nc3ccc(-c4n[nH]c5ccccc45)cc32)[nH]1,3.1
7,CCN(CC)CCNC(=O)c1c(C)[nH]c(/C=C2\C(=O)Nc3ccc(-c4ccccn4)cc32)c1C,1.06
8,CCN(CC)CCNC(=O)c1c(C)[nH]c(/C=C2\C(=O)Nc3cc(-c4ccc(C(=O)c5ccccc5)cc4)ccc32)c1C,1.63
9,CCN(CC)CCNC(=O)c1c(C)[nH]c(/C=C2\C(=O)Nc3ccc(-c4nc5ccccc5s4)cc32)c1C,0.98
10,CCN(CC)CCNC(=O)c1c(C)[nH]c(/C=C2\C(=O)Nc3ccc(-c4nccc5ccccc45)cc32)c1C,0.71

# Test system: FaDu
# Test: Cytotoxic activity against human FADU bulk cells incubated for 72 hrs by Cell-titer-Glo luminescence assay
# Format: functional, cell-based
# Settings: not given
row,SMILES,IC50 [µM]
1,CCN(CC)CCNC(=O)c1c(C)[nH]c(/C=C2\C(=O)Nc3ccc(-c4ncccc4C)cc32)c1C,7.67
2,CCN(CC)CCNC(=O)c1c(C)[nH]c(/C=C2\C(=O)Nc3ccc(-c4ccc5c(c4)CC(=O)N5)cc32)c1C,25.4
3,O=C1Nc2ccc(-c3csc(C4CCNCC4)n3)cc2/C1=C/c1cc2ccccc2[nH]1,5.16
4,CCN(CC)CCNC(=O)CCc1c(C)[nH]c(/C=C2\C(=O)Nc3ccc(-c4csc(-c5ccccc5)n4)cc32)c1C,3.85
5,Cc1[nH]c(/C=C2\C(=O)Nc3ccc(-c4csc(-c5ccccc5)n4)cc32)c(C)c1S(=O)(=O)N1CCOCC1,11.4
6,Cc1cc(C)c(/C=C2\C(=O)Nc3ccc(-c4n[nH]c5ccccc45)cc32)[nH]1,4.43
7,CCN(CC)CCNC(=O)c1c(C)[nH]c(/C=C2\C(=O)Nc3ccc(-c4ccccn4)cc32)c1C,2.56
8,CCN(CC)CCNC(=O)c1c(C)[nH]c(/C=C2\C(=O)Nc3cc(-c4ccc(C(=O)c5ccccc5)cc4)ccc32)c1C,4.46
9,CCN(CC)CCNC(=O)c1c(C)[nH]c(/C=C2\C(=O)Nc3ccc(-c4nc5ccccc5s4)cc32)c1C,4.93
10,CCN(CC)CCNC(=O)c1c(C)[nH]c(/C=C2\C(=O)Nc3ccc(-c4nccc5ccccc45)cc32)c1C,2.13
